Laboratory results reported in patent US6495699B2, “Metalloproteinase inhibitors, pharmaceutical compositions containing them, and their use” (Agouron Pharmaceuticals Inc., priority 1996, dated 2002).
pKi: −log10 of the molar value.

Assays:
[1] = target: T1, catalytic domain of human stromelysin (Hsln) (Homo sapiens, UniProt P08254); assay: Fluorometric MCA-peptide hydrolysis assay, stromelysin (Hsln); format: biochemical; details: apparent Ki; 10 μM MCA peptide substrate, 37° C., pH 7.5; read-out: Hsln (Ki,app)
T1 construct: The catalytic domain of human stromelysin (Hsln) was obtained by expression and purification of a C-terminally truncated prostromelysin-1; made in house; host or cells: E. coli BL21
T1 sequence (P08254 100-272 limits assumed): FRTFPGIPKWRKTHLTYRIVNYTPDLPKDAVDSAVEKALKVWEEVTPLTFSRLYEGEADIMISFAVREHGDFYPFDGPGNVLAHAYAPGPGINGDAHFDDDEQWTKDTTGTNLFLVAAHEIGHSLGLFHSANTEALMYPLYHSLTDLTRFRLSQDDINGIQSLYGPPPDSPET
In short: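 APMA-activated E. coli–expressed catalytic domain, with 10 μM MCA-Pro-Leu-Gly-Leu-DPA-Ala-Arg-NH2 at 37 °C. Buffer was pH 7.5 Tricine with NaCl, CaCl2, zinc acetate and 2% final DMSO; fluorescence read at ex 328/em 393 nm over 60 min. Ki,app from steady-state rates fitted to competitive or Morrison tight-binding equations.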

Human matrilysin (Matr) = target: T2, Human matrilysin (Matr) (Homo sapiens, UniProt P09237); assay: Fluorometric MCA-peptide hydrolysis assay, matrilysin (Matr); format: biochemical; details: apparent Ki; 10 μM MCA peptide substrate, 37° C., pH 7.5; read-out: Matr (Ki,app)
T2 construct: the catalytic domain was liberated by treatment with 2 mM APMA at 37° C. for 2 hours; ubiquitin (cleaved yes); made in house; host or cells: E. coli
T2 sequence (P09237 95-267): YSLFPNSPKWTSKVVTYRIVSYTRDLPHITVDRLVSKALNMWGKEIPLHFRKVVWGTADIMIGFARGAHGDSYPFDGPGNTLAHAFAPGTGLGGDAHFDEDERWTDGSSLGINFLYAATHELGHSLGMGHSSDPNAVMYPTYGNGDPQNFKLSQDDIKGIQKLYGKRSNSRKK
In short: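 Catalytic domain of E. coli-expressed human matrilysin assayed at 37° C, pH 7.5 Tricine buffer, 2% DMSO, with 10 μM MCA-Pro-Leu-Gly-Leu-DPA-Ala-Arg-NH2; fluorescence ex 328/em 393 nm over 60 min. Ki,app from steady-state rates fitted to competitive inhibition or Morrison tight-binding equation.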

[2] = target: T3, fibroblast collagenase-1 catalytic domain (HFC) (Homo sapiens, UniProt P03956); assay: Fluorometric MCA-peptide hydrolysis assay, fibroblast collagenase-1 (HFC); format: biochemical; details: apparent Ki; 10 μM MCA peptide substrate, 37° C., pH 7.5; read-out: HFC (Ki,app)
T3 construct: The catalytic domain of human collagenase-1 was expressed as a fusion protein with ubiquitin in E. coli; ubiquitin (cleaved yes); made in house; host or cells: E. coli
T3 sequence (P03956 100-269 limits assumed): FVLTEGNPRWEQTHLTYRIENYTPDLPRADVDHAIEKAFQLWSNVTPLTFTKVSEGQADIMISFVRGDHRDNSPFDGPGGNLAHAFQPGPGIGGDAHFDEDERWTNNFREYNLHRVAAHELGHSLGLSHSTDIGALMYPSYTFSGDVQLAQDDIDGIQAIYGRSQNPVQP
Description: The catalytic domain of human collagenase-1 was expressed as a fusion protein with ubiquitin in E. coli (see Gehring, E. R., J Biol. Chem., 1995, 270, 22507). After purification of the fusion protein, the fibroblast collagenase-1 catalytic domain (HFC) was released either by treatment with purified, active stromelysin-1 (1:50 w/w ratio), which generated nearly 100% N-terminal Phe1, or by autoprocessing the concentrated collagenase-1 fusion and then incubating at 37° C. for 1 hour. Final purification was completed using zinc chelate chromatography.
Assays were performed in assay buffer (50 mM Tricine pH 7.5, 200 mM sodium chloride, 10 mM calcium chloride, 0.5 mM zinc acetate containing 2% dimethyl sulfoxide (DMSO)) once the substrate and inhibitor were diluted into it. Stock solutions of inhibitors were prepared in 100% DMSO. Stock solutions of the substrate were prepared in 100% DMSO at a concentration of 6 mM.
The assay method was based on the hydrolysis of MCA-Pro-Leu-Gly-Leu-DPA-Ala-Arg-NH2 (American Peptide Co.) at 37° C. (see Knight, C. G. et al., FEBS, 1992, 296, 263-266). The fluorescence changes were monitored with a Perkin-Elmer LS-50B fluorimeter using an excitation wavelength of 328 nm and an emission wavelength of 393 nm. The substrate concentration used in the assays was 10 μM. The inhibitor was diluted into the assays from a solution in 100% DMSO, and controls substituted an equal volume of DMSO so that the final DMSO concentration from inhibitor and substrate dilution in all assays was 2%. […] Proper determination of steady-state rates of substrate cleavage required assay lengths of 60 minutes to allow for complete equilibration of the enzyme-inhibitor complex.
The Km for the MCA peptide substrate with the matrix metalloproteinases is quite high and exceeds its solubility under assay conditions. Consequently, the apparent Ki (Ki,app) was determined to describe the strength of inhibition. However, in this case, Ki,app would be essentially equal to Ki since [S]<<Km. For the determination of Ki,app, the concentration of the inhibitor was varied at a constant and low concentration of substrate and the steady-state rates of fluorescence change determined. In most cases absorptive quench due to the presence of ligand was not observed. For slow-binding inhibitors, onset of inhibition curves were collected for at least 45 minutes so that equilibrium was established. Steady-state rates of fluorescence change were obtained by fitting a curve to an equation for a single exponential decay containing a linear phase. The fitted value of the linear phase was taken as the steady-state rate. The steady-state rates were fitted to the Michaelis equation describing competitive inhibition by non-linear methods. Data resulting from tight-binding inhibition was analyzed, and Ki,app determined by fitting the data to the tight-binding equation of Morrison (Biochem. Biophys. Acta, vol. 185, pp. 269-286 (1969)) by non-linear methods.

[3] = target: T4, human progelatinase A (GelA), catalytic and fibronectin-like portion (Homo sapiens, UniProt P08253); assay: Fluorometric MCA-peptide hydrolysis assay, gelatinase A (GelA); format: biochemical; details: apparent Ki; 10 μM MCA peptide substrate, 37° C., pH 7.5
T4 construct: The catalytic and fibronectin-like portion of human progelatinase A (GelA) was expressed as a fusion protein with ubiquitin; ubiquitin; made in house; host or cells: E. coli
T4 sequence (P08253 110-465 limits assumed): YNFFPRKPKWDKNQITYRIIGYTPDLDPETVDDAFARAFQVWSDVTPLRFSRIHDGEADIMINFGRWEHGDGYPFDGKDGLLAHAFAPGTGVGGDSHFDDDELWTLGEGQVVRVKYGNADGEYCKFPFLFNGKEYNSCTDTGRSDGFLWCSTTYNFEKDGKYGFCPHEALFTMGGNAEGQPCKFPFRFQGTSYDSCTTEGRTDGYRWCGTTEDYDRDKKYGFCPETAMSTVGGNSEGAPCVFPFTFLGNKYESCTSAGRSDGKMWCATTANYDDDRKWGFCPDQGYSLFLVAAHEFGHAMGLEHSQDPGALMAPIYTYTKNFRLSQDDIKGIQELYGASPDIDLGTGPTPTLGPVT
In short: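 E. coli-expressed ubiquitin fusion of human proGelA catalytic plus fibronectin-like domains, autoactivated; 10 μM MCA-Pro-Leu-Gly-Leu-DPA-Ala-Arg-NH2, pH 7.5 Tricine/NaCl/CaCl2/Zn buffer, 2% DMSO, 37° C, 60 min. Fluorescence 328/393 nm; steady-state rates fitted to competitive inhibition or Morrison tight-binding equation giving Ki,app (≈Ki since [S]<<Km).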

[4] = target: T5, human collagenase-3 (Coll3) (Homo sapiens, UniProt P45452); assay: Fluorometric MCA-peptide hydrolysis assay, collagenase-3 (Coll3); format: biochemical; details: apparent Ki; 10 μM MCA peptide substrate, 37° C., pH 7.5; read-out: Coll3 (Ki,app)
T5 construct: the catalytic domain was liberated by treatment with 2 mM APMA at room temperature overnight; ubiquitin (N, cleaved yes); made in house; host or cells: E. coli

[5] = Determination of inhibitor concentration in plasma after oral dosing; format: in vivo, Sprague Dawley rats; details: Sprague-Dawley, rat plasma
Description: The dosing solution consisted of the inhibitor dissolved in either a molar equivalent of HCl in water (vehicle A), in 60% aq. propylene glycol (vehicle B), or in 2.8 mg/mL sodium bicarbonate in 60% aqueous propylene glycol (vehicle C), yielding a final concentration that ranged from 10-15 mg/ml. Sprague Dawley rats (Hilltop Lab Animals, Scottsdale, Pa.) were dosed as a function of drug weight per body weight, usually 50 mgper kg. Blood was taken from the rats and centrifuged, and the plasma was stored in the freezer. Drug was extracted from a 50 μl plasma aliquot by adding 1 ml of acetonitrile, shaking for 2 minutes, centrifuging for 15 minutes at 4000 rpm, collecting the supernatant, and then evaporating it to dryness under a stream of nitrogen. The samples were reconstituted with 130 μl of mobile phase, shook for 2 minutes, and centrifuged for 15 minutes at 4000 rpm. The supernatant was collected and the samples were analyzed by injecting 100 μl of supernatant onto HPLC.
Quantitation of drug levels was accomplished by generating a standard curve of known drug amounts that were extracted from added plasma. Drug levels were plotted as a function of time and analyzed to provide area under the curve (AUC) and maximum concentration (Cmax) values.

[6] = dose 25 mg/kg, vehicle A (molar equivalent of HCl in water)
[7] = dose 50 mg/kg, vehicle A, dosed as the benzyl ester prodrug
[8] = dose 50 mg/kg, vehicle B, dosed as the benzyl ester prodrug
[9] = dose 50 mg/kg, vehicle B (60% aq. propylene glycol)
[10] = dose 25 mg/kg, vehicle C (2.8 mg/mL sodium bicarbonate in 60% aqueous propylene glycol)

SMILES | pKi [1] | pKi (Human matrilysin (Matr)) | pKi [2] | GelA (Ki,app) [3] [nM] | pKi [4] | melting point | further results
O=C(O)C[C@H](C(=O)N[C@H]1Cc2cn(c3ccccc23)CCOCCNC1=O)n1ccc(-c2ccc(-c3ccncc3)cc2)c1 [Example 7(a), N-(8-Oxo-4-oxa-1,7-diazatricyclo[9.6.1.0^12,17]octadeca-11(18),12,14,16-tetraen-9(S)-yl)-3(R)-[3-[4-(pyridin-4-yl)phenyl]-1H-pyrrol-1-yl]succinamic Acid] | 8.70 | 6.19 | 6.48 | 0.015 | 10.89 | > 172 °C (dec.) | –
CC1(C)COC(=O)[C@H]1NC(=O)[C@@H](CC(=O)O)n1ccc(-c2ccc(-c3ccncc3)cc2)c1 [Example 6(c), N-(4,4-Dimethyl-2-oxo-tetrahydrofuran-3(S)-yl)-3(R)-[3-[4-(pyridin-4-yl)phenyl]-1H-pyrrol-1-yl]succinamic Acid] | 7.27 | 5.30 | – | 0.806 | 8.12 | – | AUC [5, 6]: 933 ng·h/mL; Cmax [5, 6]: 450 ng/mL; AUC [5, 7]: 4420 ng·h/mL; Cmax [5, 7]: 1140 ng/mL
CCOC(=O)c1ccc(NC(=O)[C@H](CC(C)C)NC(=O)[C@@H](CC(=O)O)n2cccc2)cc1 [Example 1(n), 4-[2S-(3-Carboxy-2(R)-1H-pyrrol-1-yl-propionylamido)-4-methyl-pentanoylamino]benzoic Acid Ethyl Ester] | 5.70 | < 5.00 | 5.72 | – | 5.07 | 111 to 114 °C | –
CNC(=O)[C@@H](NC(=O)[C@@H](CC(=O)O)n1ccc(-c2ccc(-c3ccncc3)cc2)c1)C(C)(C)C [Example 6(b), N-(2,2-Dimethyl-1(S)-(methylcarbamoyl)propyl)-3(R)-[3-(4-(pyridin-4-yl)phenyl)-1H-pyrrol-1-yl]succinamic Acid] | 8.44 | – | 5.54 | 0.066 | 9.68 | – | AUC [5, 8]: 617 ng·h/mL; Cmax [5, 8]: 300 ng/mL
O=C(O)C[C@H](C(=O)N[C@H]1Cc2cn(c3ccccc23)CCCCCCNC1=O)n1cccc1 [Example 1(o), N-(9-oxo-1,8-Diaza-tricyclo[10.6.1.0^13,18]nonadeca-12(19), 13,15,17-tetraen-10S-yl)-3(R)-1H-pyrrol-1-yl-succinamic Acid] | < 5.00 | 4.82 | 4.29 | – | – | 139 to 144 °C | –
CC(C)(C)[C@H](NC(=O)[C@@H](CC(=O)O)n1ccc(-c2ccc(-c3ccncc3)cc2)c1)C(=O)Nc1ccncc1 [Example 7(b), N-[2,2-Dimethyl-1(S)-(pyridin-4-ylcarbamoyl)propyl]-3(R)-[3-[4-(pyridin-4-yl)phenyl]-1H-pyrrol-1-yl]succinamic Acid] | 9.54 | 8.30 | 6.34 | 0.007 | 11.00 | – | AUC [5, 9]: 400 ng·h/mL; Cmax [5, 9]: 210 ng/mL
O=C(O)C[C@H](C(=O)N[C@H](CO)Cc1ccccc1)c1ccn(-c2ccc(-c3ccccc3)cc2)c1 [Example 13] | 7.46 | 4.77 | 4.14 | 1.7 | 7.68 | 151 to 154 °C | –
CNC(=O)[C@@H](NC(=O)[C@@H](CC(=O)O)c1ccn(-c2ccc(F)cc2)c1)C(C)(C)C [Example 14(a), N-[2,2-Dimethyl-1(S)-(methylcarbamoyl)propyl]-3(S)-[1-(4-fluorophenyl)-1H-pyrrol-3-yl]succinamic Acid] | 6.25 | – | – | 4.3 | 8.14 | – | AUC [5, 9]: 1570 ng·h/mL; Cmax [5, 9]: 820 ng/mL
CC1(C)COC(=O)[C@H]1NC(=O)[C@@H](CC(=O)O)c1ccn(-c2ccc(-c3ccc(C#N)cc3)cc2)c1 [Example 14(d), 3(S)-[1-(4′-Cyanobiphenyl-4-yl)-1H-pyrrol-3-yl]-N-(4,4-dimethyl-2-oxo-tetrahydrofuran-3(S)-yl)succinamic Acid] | 7.72 | – | – | 0.9 | – | – | AUC [5, 10]: 5820 ng·h/mL; Cmax [5, 10]: 1370 ng/mL
COC(=O)c1ccc(NC(=O)[C@H](CC(C)C)NC(=O)[C@@H](CC(=O)O)c2ccsc2)cc1 [Example 17(b), 4-[2(S)-[2(R)-Carboxymethyl-2-(thien-3-yl)acetylamino]-4-methyl-valeroyl]-aminobenzoic Acid Methyl Ester] | 6.14 | 6.51 | 4.70 | – | – | 199 to 201 °C | –
